Data as given in patent US20260176285A1, “SALT OF DIOXANE QUINOLINE COMPOUND, CRYSTAL FORM THEREOF, PREPARATION METHODS THEREFOR AND USES THEREOF” (Beijing Scitech-MQ Pharmaceuticals Limited, priority 2022, published 2026).

Tests used:
[1] = Long-term stability study; assay type: physicochemical
Procedure: p-Toluenesulfonate salt crystal form A-II of the compound of formula (I) was placed at 25° C./60% RH for 6 months to investigate its long-term stability.

[2] = Equilibrium solubility in water; assay type: physicochemical; settings: H2O, room temperature, 24 hours; listed as p-Toluenesulfonate salt crystal form A-II
Procedure: The sample was centrifuged and filtered, and the filtrate was tested by HPLC.

[3] = target: T1, PDGFRa (Homo sapiens, UniProt P16234); test: Kinase activity, Mobility Shift Assay; assay type: biochemical
T1 construct: purchased BPS 40260
T1 sequence (P16234 24-1089): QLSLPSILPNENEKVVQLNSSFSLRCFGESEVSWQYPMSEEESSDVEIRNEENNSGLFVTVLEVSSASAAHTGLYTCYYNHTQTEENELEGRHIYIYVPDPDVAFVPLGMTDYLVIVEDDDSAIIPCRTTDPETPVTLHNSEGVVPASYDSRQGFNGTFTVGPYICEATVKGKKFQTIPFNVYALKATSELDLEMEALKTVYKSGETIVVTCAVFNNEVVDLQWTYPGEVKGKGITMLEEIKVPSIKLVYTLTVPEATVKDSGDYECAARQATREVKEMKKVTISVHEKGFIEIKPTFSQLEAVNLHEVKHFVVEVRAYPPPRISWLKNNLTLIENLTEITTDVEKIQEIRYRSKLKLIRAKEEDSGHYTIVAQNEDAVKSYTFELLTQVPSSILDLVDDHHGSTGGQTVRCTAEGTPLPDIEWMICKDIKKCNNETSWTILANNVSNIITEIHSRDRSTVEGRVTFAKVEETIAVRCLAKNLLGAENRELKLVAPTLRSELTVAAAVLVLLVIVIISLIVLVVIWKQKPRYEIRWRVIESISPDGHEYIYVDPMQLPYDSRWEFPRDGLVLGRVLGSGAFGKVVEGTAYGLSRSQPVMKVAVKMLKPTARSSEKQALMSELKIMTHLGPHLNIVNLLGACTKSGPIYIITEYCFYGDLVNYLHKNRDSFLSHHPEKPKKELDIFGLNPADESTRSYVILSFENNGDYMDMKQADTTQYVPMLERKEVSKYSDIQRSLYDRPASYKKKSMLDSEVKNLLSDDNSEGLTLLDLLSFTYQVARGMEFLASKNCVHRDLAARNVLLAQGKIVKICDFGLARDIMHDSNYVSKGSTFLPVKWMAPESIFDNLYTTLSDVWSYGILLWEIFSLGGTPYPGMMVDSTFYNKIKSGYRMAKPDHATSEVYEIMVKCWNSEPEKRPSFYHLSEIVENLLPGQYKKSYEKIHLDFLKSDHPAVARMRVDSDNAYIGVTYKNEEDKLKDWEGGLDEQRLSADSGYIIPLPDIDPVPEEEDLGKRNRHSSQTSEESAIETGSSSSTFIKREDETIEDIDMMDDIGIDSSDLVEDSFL
Procedure: (§1) The assay used the Mobility Shift Assay method. The starting concentration of the test substance was 2.5 μM, which was serially diluted 3-fold to give a total of 10 concentrations, in duplicate.
(§2) The p-toluenesulfonate salt of the free compound prepared in Example 2 was used as the test compound. The starting concentration of the test was 2.5 μM, and the concentration was prepared to 50 times, that is, 125 μM. 158 μl of 100% DMSO was added to the second well of a 96-well plate, and then 2 μl of 10 mM compound solution was added to prepare a 125 μM compound solution. 60 μl of 100% DMSO was added to the other wells. 30 μl of the compound was taken out from the second well and added to the third well, and the 3-fold dilution was made successively to give a total of 10 dilutions. Dilution instrument: automatic microwell pipette (Precision PRC384U)
(§3) • (1) 10 μl was taken out from each well of the 96-well plate with 50-fold compound concentration and transferred to another 96-well plate. 90 μl of kinase buffer was added to prepare a 5-fold compound concentration. • (2) 5 μl was taken out from the 96-well plate with 5-fold compound concentration and transferred to a 384-well reaction plate. For example, the compound in well A1 of the 96-well plate was transferred to wells A1 and A2 of the 384-well plate, the compound in well A2 of the 96-well plate was transferred to wells A3 and A4 of the 384-well plate, and so on.
(§4) Kinase was added to 1× kinase buffer to make a 2.5 times enzyme solution.
(§5) • (1) 5 μl of 5× compound dissolved in 10% DMSO was already in the 384-well reaction plate. • (2) 10 μl of 2.5× enzyme solution was added to the 384-well reaction plate and 10 μl of kinase buffer was added to the negative control wells. • (3) Incubation at room temperature for 10 minutes.
(§6) FAM-labeled peptide and ATP (ATP concentration see Appendix) were added to 1× kinase buffer to form a 2.5× substrate solution.
(§7) 10 μl of 2.5× substrate solution was added to the 384-well reaction plate and centrifuged at 1000 rpm for 1 minute.
(§8) • (1) The plate was incubated at 28° C. for 60 minutes (Biochemical incubator model: SPX-100B-Z). • (2) 30 μl of stop solution was added to the 384-well reaction plate to terminate the reaction and centrifuged at 1000 rpm for 1 minute.
(§9) The data of conversion rate was read on Caliper EZ Reader II.
(§10) • 1) The conversion rate data was copied from Caliper EZ Reader II. • 2) The conversion rate was converted to inhibition rate data, where max refers to the conversion rate of the DMSO control and min refers to the conversion rate of the no enzyme activity control.
(§11) [formula] • 3) Fitting of IC50 values using XLFit excel add-in version 5.4.0.8

[4] = target: T2, AXL (Homo sapiens, UniProt P30530); test: Kinase activity, Mobility Shift Assay; assay type: biochemical
T2 construct: purchased Carna 08-107
T2 sequence (P30530 26-894): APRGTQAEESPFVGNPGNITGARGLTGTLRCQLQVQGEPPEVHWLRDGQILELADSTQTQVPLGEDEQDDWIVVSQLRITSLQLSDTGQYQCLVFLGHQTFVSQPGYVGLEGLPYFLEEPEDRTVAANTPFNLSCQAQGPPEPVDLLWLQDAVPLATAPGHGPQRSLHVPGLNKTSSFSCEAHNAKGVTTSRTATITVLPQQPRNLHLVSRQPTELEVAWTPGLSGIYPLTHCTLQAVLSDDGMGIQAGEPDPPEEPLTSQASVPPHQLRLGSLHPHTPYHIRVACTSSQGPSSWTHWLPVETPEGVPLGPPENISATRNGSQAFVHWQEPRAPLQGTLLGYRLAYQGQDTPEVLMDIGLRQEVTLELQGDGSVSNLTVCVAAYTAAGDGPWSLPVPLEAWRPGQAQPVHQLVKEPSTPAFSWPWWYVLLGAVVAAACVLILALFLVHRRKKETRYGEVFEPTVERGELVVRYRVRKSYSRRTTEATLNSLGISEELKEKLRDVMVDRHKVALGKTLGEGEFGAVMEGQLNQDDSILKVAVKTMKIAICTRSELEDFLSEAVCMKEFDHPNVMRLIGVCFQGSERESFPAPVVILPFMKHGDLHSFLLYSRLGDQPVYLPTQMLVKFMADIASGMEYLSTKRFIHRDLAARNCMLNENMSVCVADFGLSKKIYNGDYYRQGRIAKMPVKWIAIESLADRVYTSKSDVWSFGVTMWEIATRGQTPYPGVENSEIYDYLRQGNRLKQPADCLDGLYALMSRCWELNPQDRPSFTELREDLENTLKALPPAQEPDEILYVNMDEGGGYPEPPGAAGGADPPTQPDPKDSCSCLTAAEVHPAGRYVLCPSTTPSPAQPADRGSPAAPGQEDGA
Procedure: as §1, §2, §3, §4, §5, §6, §7, §8, §9, §10, §11

[5] = target: T3, TRK-B (Homo sapiens, UniProt Q16620); test: Kinase activity, Mobility Shift Assay; assay type: biochemical
T3 construct: purchased Carna 08-187
T3 sequence (Q16620 32-822): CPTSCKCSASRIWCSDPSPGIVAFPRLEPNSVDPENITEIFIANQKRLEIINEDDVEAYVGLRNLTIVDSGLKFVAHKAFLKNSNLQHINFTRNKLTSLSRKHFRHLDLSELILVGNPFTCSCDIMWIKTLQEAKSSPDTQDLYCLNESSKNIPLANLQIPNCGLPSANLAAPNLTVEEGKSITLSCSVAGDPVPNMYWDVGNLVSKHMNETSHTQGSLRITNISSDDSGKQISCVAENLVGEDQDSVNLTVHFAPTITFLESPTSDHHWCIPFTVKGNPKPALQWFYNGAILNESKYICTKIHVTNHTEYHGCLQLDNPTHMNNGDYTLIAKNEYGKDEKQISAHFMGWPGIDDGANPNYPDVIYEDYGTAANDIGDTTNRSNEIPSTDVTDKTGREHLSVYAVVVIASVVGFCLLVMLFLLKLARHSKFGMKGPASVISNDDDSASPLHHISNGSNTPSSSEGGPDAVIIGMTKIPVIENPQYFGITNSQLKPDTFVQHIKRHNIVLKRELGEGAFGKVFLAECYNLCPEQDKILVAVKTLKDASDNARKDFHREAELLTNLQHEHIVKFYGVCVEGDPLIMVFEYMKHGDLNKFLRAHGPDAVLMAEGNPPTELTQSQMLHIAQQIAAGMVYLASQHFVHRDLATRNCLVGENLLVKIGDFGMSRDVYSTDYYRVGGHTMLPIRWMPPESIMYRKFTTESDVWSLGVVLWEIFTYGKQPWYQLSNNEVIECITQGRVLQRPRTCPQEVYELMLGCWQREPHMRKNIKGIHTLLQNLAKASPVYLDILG
Procedure: as §1, §2, §3, §4, §5, §6, §7, §8, §9, §10, §11

[6] = target: T4, KIT (Homo sapiens, UniProt P10721); test: Kinase activity, Mobility Shift Assay; assay type: biochemical
T4 construct: purchased eurofins 14-559M
T4 sequence (P10721 26-976): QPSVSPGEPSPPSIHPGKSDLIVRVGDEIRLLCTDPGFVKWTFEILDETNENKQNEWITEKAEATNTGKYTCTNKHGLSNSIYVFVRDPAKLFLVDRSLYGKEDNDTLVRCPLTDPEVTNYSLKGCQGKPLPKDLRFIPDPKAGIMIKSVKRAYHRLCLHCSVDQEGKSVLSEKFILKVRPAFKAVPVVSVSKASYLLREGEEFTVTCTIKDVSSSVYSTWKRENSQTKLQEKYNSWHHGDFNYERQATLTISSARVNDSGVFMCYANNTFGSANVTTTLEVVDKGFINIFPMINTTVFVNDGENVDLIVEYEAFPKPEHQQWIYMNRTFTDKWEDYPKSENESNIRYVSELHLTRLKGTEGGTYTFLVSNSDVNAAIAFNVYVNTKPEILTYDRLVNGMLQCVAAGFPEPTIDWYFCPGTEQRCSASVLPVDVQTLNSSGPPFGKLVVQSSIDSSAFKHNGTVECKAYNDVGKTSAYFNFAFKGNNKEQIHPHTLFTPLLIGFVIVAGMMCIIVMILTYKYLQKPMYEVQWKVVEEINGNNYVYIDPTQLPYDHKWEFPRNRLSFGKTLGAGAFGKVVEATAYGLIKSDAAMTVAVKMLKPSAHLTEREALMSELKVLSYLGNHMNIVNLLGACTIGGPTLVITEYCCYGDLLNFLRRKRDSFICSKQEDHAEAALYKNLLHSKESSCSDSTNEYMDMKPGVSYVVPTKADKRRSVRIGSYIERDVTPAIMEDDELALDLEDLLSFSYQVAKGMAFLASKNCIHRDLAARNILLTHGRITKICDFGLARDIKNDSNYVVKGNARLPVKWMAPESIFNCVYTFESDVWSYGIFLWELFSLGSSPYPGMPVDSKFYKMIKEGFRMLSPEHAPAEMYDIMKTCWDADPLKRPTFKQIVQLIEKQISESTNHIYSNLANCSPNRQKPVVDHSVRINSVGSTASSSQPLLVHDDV
Procedure: as §1, §2, §3, §4, §5, §6, §7, §8, §9, §10, §11

[7] = target: T5, TRK-A (Homo sapiens, UniProt P04629); test: Kinase activity, Mobility Shift Assay; assay type: biochemical
T5 construct: purchased Carna 08-186
T5 sequence (P04629 33-796): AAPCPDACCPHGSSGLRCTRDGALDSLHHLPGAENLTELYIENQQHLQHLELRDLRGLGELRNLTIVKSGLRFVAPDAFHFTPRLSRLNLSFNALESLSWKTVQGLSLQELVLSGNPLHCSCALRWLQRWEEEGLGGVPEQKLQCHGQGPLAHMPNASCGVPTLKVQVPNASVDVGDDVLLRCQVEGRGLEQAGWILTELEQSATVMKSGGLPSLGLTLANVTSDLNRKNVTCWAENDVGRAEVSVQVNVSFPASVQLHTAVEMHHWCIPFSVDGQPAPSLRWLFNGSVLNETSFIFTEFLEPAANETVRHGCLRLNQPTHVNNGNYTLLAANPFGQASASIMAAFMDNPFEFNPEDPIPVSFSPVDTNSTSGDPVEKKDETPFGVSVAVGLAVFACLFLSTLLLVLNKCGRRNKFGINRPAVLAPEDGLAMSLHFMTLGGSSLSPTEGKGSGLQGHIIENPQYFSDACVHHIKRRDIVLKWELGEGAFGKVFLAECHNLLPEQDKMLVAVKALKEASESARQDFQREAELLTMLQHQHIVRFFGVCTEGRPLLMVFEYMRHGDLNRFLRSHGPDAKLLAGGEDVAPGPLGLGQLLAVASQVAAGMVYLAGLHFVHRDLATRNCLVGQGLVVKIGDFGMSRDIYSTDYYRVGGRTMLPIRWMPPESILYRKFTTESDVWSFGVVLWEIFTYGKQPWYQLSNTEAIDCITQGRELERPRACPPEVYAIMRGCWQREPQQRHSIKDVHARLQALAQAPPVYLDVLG
Procedure: as §1, §2, §3, §4, §5, §6, §7, §8, §9, §10, §11

[8] = target: T6, RET (Homo sapiens, UniProt P07949); test: Kinase activity, Mobility Shift Assay; assay type: biochemical
T6 construct: purchased Carna 08-159
Procedure: as §1, §2, §3, §4, §5, §6, §7, §8, §9, §10, §11

[9] = target: T7, MET (Homo sapiens, UniProt P08581); test: Kinase activity, Mobility Shift Assay; assay type: biochemical
T7 construct: purchased Carna 08-151
T7 sequence (P08581 25-1390): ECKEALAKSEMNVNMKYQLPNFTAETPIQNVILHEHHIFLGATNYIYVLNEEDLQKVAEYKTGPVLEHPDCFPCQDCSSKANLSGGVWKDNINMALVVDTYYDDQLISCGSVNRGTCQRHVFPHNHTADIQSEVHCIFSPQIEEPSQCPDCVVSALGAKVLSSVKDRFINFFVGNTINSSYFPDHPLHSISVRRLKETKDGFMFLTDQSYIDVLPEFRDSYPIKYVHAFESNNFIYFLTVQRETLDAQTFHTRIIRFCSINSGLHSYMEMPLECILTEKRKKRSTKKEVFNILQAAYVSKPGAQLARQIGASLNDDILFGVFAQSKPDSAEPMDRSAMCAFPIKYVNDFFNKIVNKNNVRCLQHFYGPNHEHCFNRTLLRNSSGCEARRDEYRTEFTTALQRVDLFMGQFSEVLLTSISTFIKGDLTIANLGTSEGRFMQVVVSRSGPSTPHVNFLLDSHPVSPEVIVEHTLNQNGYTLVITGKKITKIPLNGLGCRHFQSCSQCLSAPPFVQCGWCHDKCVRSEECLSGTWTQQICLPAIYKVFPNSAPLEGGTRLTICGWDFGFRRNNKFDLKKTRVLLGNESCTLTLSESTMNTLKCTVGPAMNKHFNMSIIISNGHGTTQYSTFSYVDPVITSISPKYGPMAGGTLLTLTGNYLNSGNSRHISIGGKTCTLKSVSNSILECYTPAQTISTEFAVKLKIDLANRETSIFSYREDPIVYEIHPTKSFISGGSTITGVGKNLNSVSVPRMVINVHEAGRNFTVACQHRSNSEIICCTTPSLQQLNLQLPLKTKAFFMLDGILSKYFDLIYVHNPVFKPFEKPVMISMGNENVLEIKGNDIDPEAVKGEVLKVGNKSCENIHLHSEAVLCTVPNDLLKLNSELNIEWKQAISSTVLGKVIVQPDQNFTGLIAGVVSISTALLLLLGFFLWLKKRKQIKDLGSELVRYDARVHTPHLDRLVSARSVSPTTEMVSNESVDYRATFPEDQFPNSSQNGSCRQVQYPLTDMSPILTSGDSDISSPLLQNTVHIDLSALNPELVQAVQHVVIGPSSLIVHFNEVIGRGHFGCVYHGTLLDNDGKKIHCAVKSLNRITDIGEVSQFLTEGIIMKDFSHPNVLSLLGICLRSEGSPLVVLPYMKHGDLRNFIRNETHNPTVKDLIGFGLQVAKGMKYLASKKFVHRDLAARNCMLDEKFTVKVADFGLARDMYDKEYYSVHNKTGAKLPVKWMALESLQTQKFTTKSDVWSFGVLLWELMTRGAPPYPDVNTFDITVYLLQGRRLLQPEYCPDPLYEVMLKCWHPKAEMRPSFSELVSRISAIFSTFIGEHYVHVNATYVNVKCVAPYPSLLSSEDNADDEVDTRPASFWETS
Procedure: as §1, §2, §3, §4, §5, §6, §7, §8, §9, §10, §11

[10] = target: T8, KDR(VEGFR2) (Homo sapiens, UniProt P35968); test: Kinase activity, Mobility Shift Assay; assay type: biochemical
T8 construct: purchased Carna 08-191
Procedure: as §1, §2, §3, §4, §5, §6, §7, §8, §9, §10, §11

[11] = 25° C./60% RH, simulating factory packaging, 3 months
[12] = 25° C./60% RH, simulating factory packaging, 6 months

For `O=C(Nc1ccc(F)cc1)C1(C(=O)Nc2ccc(Oc3ccnc4cc(OCCCN5CCOCC5)c5c(c34)OCCO5)c(F)c2)CC1` [Example 2, N-(3-fluoro-4-((5-(3-morpholinopropoxy)-2,3-dihydro-[1,4]dioxano[2,3-f]quinolin-10-yl)oxy)phenyl)-N-(4-fluorophenyl)cyclopropane-1,1-dicarboxamide], which Appearance [1, 11] is on record?
Its Appearance is “Off-white”.

And the Content [1, 11]?
Its Content is 100.0%.

And the Crystal form [1, 11]?
Its Crystal form is “No”.

What about the Moisture [1, 11] of the same compound?
Its Moisture is 0.31%.

What about the Total impurities [1, 11] of the same compound?
The Total impurities was 0.38%.

And the Appearance [1, 12]?
Its Appearance is “Off-white”.

What about the Content [1, 12] of the same compound?
Its Content is 100.5%.

What about the Crystal form [1, 12] of the same compound?
The Crystal form was “No”.

And the Moisture [1, 12]?
The Moisture was 0.59%.

What about the Total impurities [1, 12] of the same compound?
Its Total impurities is 0.36%.

And the Appearance ([1]; Day 0)?
The Appearance was “Off-white”.

And the Content ([1]; Day 0)?
The Content was 100.2%.

What about the Crystal form ([1]; Day 0) of the same compound?
Its Crystal form is “No”.

What about the Moisture ([1]; Day 0) of the same compound?
The Moisture was 0.53%.

And the Total impurities ([1]; Day 0)?
The Total impurities was 0.37%.

And the “Solubility (equilibrium)” value [2]?
The value was 5100 µg/mL.

And the “inhibition of the activity of PDGFRa (in words)” value [3]?
The value was “effectively inhibit”.

What about the “inhibition of the activity of AXL (in words)” value [4] of the same compound?
Its value is “effectively inhibit”.

And the “inhibition of the activity of TRK-B (in words)” value [5]?
Its value is “effectively inhibit”.

What about the “inhibition of the activity of c-KIT (in words)” value [6] of the same compound?
The value was “effectively inhibit”.

And the “inhibition of the activity of TRK-A (in words)” value [7]?
Its value is “effectively inhibit”.

And the “inhibition of the activity of RET (in words)” value [8]?
The value was “effectively inhibit”.

What about the “inhibition of the activity of c-MET (in words)” value [9] of the same compound?
Its value is “effectively inhibit”.

What about the “inhibition of the activity of VEGFR-2 (in words)” value [10] of the same compound?
The value was “effectively inhibit”.
